Test results as given in BindingDB's records for patent US20240072809 (Avilar Therapeutics, 2024).

Each compound was assayed against T1, Asialoglycoprotein receptor 1 (Homo sapiens, UniProt P07306) (assay: ASGPR Measured Using Surface Plasmon Resonance (SPR)).
T1 sequence (P07306 whole entry): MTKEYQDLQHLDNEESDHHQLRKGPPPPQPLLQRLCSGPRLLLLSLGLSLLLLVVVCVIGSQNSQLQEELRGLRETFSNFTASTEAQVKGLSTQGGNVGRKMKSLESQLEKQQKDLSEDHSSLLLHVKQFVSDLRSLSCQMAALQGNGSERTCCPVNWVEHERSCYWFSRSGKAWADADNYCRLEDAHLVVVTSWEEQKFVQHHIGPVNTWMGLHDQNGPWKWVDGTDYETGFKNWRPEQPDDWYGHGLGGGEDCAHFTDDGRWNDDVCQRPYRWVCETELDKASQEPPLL
Description: Recombinant ASGPR protein is first biotinylated using Maleimide-PEG2-biotin reagent (Pierce, 19-fold molar excess) in phosphate-buffered saline (PBS) solution overnight at 4° C. Excess amount of biotin in the reaction mixture is removed by Zeba desalting columns (Thermo). Biotinylation is confirmed by mass spectroscopic analysis of ASGPR. Biotinylated ASGPR is then immobilized on SA sensor chips (GE Healthcare) with an immobilization level ranging from 1500-3000 resonance units (RU). The running buffer is 50 mM Tris, pH7.5, 150 mM NaCl, 50 mM CaCl2), 0.01% P20, 3% DMSO. […] The compounds are diluted 3 folds with total 8 concentration points. Solutions containing serially diluted compounds are injected at a flow rate of 50 μL/min for 60 sec followed by a 180 sec dissociation phase for each concentration. Data is processed using the analysis software in Biacore 8K to perform background subtraction, double referencing and solvent correction.
Compound OC[C@H]1OC[C@H](Nc2nc(Cl)cs2)[C@@H](O)[C@H]1O [US20240072809, Compound A99] has a Kd greater than 1000 µM.
CO[C@@H]1O[C@H](CO)[C@H](O)[C@H](O)[C@H]1Nc1ncns1 [US20240072809, Compound A110] showed a Kd of less than 100 µM.
For OC[C@H]1OC[C@@H](Nc2ncns2)[C@@H](O)[C@H]1O [US20240072809, Compound A147], the Kd was less than 100 µM.
Compound OC[C@H]1OC[C@@H](Nc2nc(Cl)cs2)[C@@H](O)[C@H]1O [US20240072809, Compound A148] has a Kd greater than 20 µM.
Work on OCCC[C@@H]1CO[C@H](CO)[C@H](O)[C@@H]1O [US20240072809, Compound A162] yielded a Kd greater than 1000 µM.
OC[C@H]1OC[C@H](Nc2nc(-c3ccncc3)ns2)[C@@H](O)[C@H]1O [US20240072809, Compound A319] gave a Kd of less than 100 µM.
